pIC50: −log10 of the molar value.
Target: T1, CDK2/cyclinA (Homo sapiens, UniProt P24941)
T1 construct: C-terminal 6His-tagged human full length cdk2 (MW=35 kDa); 6His (C); made in house; host or cells: Sf21 insect cells (baculovirus)
Test: CDK2 kinase assay (33P-ATP, Histone H1 substrate)
Assay type: biochemical
Details: 1 μM ATP, 5 μM Histon H1, 2 hours at room temperature
Text: CDK2/cyclinA (Accession number for CDK2; EMBL M68520, for cyclin A; EMBL X51688): C-terminal 6His-tagged human full length cdk2 (MW=35 kDa), and N-terminal GST-tagged human full length cyclin A (MW=75 kDa) were expressed individually with baculovirus system in Sf21 insect cells. Recombinant cdk2 protein was purified with Ni2+/NTA agarose and then activated using CAK and repurified by Q Sepharose and Ni2+/NTA agarose. Recombinant cyclin A was purified using glutathione-agarose. They were then mixed in vitro to form protein complex. Recombinant protein complex was measured to be 67% in purity with SDS-PAGE and Coomassie blue staining. Specific activity of purified enzyme was measured to be 158 U/mg, where one unit of cdk2/cyclinA activity is defined as 1 nmol phosphate incorporated into 0.1 mg/ml histone H1 per minute at 30° C. with a final ATP concentration of […]. Enzyme was stored at a concentration of 0.1 mg/ml in 50 mM Tris/HCl pH7.5, 150 mM NaCl, 0.1 mM EGTA, 0.03% Brij-35, 270 mM sucrose, 1 mM benzamidine, 0.2 mM PMSF, 0.1% 2-mercaptoethanol. Frozen solution.
Histon H1 (Substrate for CDK2): Histone H1 (Sigma cat#H4524), was purified as a lysine rich fraction from calf thymus with 93% purity (MW=21.5 kDa). Purified protein was stored at a concentration of 20 mg/ml=930 μM in distilled water.
[…] (0.5 nmol) and 5 μM Histon H1 were mixed in the reaction buffer (20 mM HEPES (pH 7.5), 10 mM MgCl2, 1 mM EGTA, 0.02% Brij 35, 0.02 mg/ml BSA, 0.1 mM Na3VO4, 2 mM DTT) with final concentration of 1 μM ATP and 1% DMSO. The reaction was incubated for 2 hours at room temperature and conversion rate of ATP is about 4.5%. An equal volume of 25% TCA was added to stop the reaction and precipitate the labeled peptides. Precipitated proteins were trapped onto glass fiber B filterplates and excess […] p33 ATP was washed off. The plates were allowed to air-dry prior to the addition of 30 uL/well of Packard Microscint 20. The amount of incorporated isotope was measured using a Perkin Elmer TopCount plate reader. Different concentrations of compounds were added to reaction to assess the activity of compounds to inhibit […]. IC50 was calculated using Prism software with sigmoidal dose-response curve fitting.
The following TABLE B lists compounds representative of the invention and their activity in the CDK2 assay. In this assay, the following grading was used: I≧10 μM, 10 μM>II>1 μM, 1 μM>III>0.1 μM, and IV≦0.1 μM for IC50.

| pIC50 | SMILES |
| --- | --- |
| ≥ 7.00 | CONC(=O)CCCCCCC(=O)Nc1ncc(SCc2ncc(C(C)(C)C)o2)s1 [Compound 1, N^1-(5-((5-tert-butyloxazol-2-yl)methylthio)thiazol-2-yl)-N^8-methoxyoctanediamide] |
| ≥ 7.00 | CC(C)(C)c1cnc(CSc2cnc(NC(=O)CCCCCCC(=O)NOC3CCCCO3)s2)o1 (stereo not shown) [Compound 3, N^1-(5-((5-tert-butyloxazol-2-yl)methylthio)thiazol-2-yl)-N^8-(tetrahydro-2H-pyran-2-yloxy)octanediamide] |
| ≥ 7.00 | CC(C)(C)c1cnc(CSc2cnc(NC(=O)CCCCCCC(=O)NOCCO)s2)o1 [Compound 7, N^1-(5-((5-tert-butyloxazol-2-yl)methylthio)thiazol-2-yl)-N^8-(2-hydroxyethoxy)octanediamide] |
| ≥ 7.00 | CC(C)(C)c1cnc(CSc2cnc(NC(=O)CC(=O)Nc3ccccc3N)s2)o1 [Compound 13, N1-(2-aminophenyl)-N3-(5-((5-tert-butyloxazol-2-yl)methylthio)thiazol-2-yl)malonamide] |
| ≥ 7.00 | CC(C)(C)c1cnc(CSc2cnc(NC(=O)CCCCCC(=O)Nc3ccccc3N)s2)o1 [Compound 17, N1-(2-aminophenyl)-N7-(5-((5-tert-butyloxazol-2-yl)methylthio)thiazol-2-yl)heptanediamide] |
| ≥ 7.00 | CC(=O)Nc1ccccc1NC(=O)CCCCCCC(=O)Nc1ncc(SCc2ncc(C(C)(C)C)o2)s1 [Compound 19, N^1-(2-acetamidophenyl)-N^8-(5-((5-tert-butyloxazol-2-yl)methylthio)thiazol-2-yl)octanediamide] |
| ≥ 7.00 | CC(C)(C)c1cnc(CSc2cnc(NC(=O)CCCCCCC(=O)Nc3cccc(N)c3)s2)o1 [Compound 22, N^1-(3-aminophenyl)-N^8-(5-((5-tert-butyloxazol-2-yl)methylthio)thiazol-2-yl)octanediamide] |
| ≥ 7.00 | Cc1ccc(NC(=O)CCCCCCC(=O)Nc2ncc(SCc3ncc(C(C)(C)C)o3)s2)c(N)c1 [Compound 26, N^1-(2-amino-4-methylphenyl)-N^8-(5-((5-tert-butyloxazol-2-yl)methylthio)thiazol-2-yl)octanediamide] |
| ≥ 7.00 | CC(C)(C)c1cnc(CSc2cnc(NC(=O)CCCCCCC(=O)Nc3ccccn3)s2)o1 [Compound 28, N^1-(5-((5-tert-butyloxazol-2-yl)methylthio)thiazol-2-yl)-N^8-(pyridin-2-yl)octanediamide] |
| ≥ 7.00 | CC(C)(C)c1cnc(CSc2cnc(NC(=O)CCCCCCC(=O)Nc3ccncc3)s2)o1 [Compound 30, N^1-(5-((5-tert-butyloxazol-2-yl)methylthio)thiazol-2-yl)-N^8-(pyridin-4-yl)octanediamide] |
| ≥ 7.00 | CC(C)(C)c1cnc(CSc2cnc(NC(=O)Cc3ccc(OCCC(=O)Nc4ccccc4N)cc3)s2)o1 [Compound 33] |
| ≥ 7.00 | CC(C)(C)c1cnc(CSc2cnc(NC(=O)Cc3ccc(OCCCCCC(=O)Nc4ccccc4N)cc3)s2)o1 [Compound 36, N-(2-aminophenyl)-6-(4-(2-(5-((5-tert-butyloxazol-2-yl)methylthio)thiazol-2-ylamino)-2-oxoethyl)phenoxy)hexanamide] |

Continued, compound first:

| SMILES | pIC50 |
| --- | --- |
| CC(C)(C)c1cnc(CSc2cnc(NC(=O)CCCCCCC(=O)NOCc3ccccc3)s2)o1 [Compound 2, N^1-(benzyloxy)-N^8-(5-((5-tert-butyloxazol-2-yl)methylthio)thiazol-2-yl)octanediamide] | ≥ 7.00 |
| CN(O)C(=O)CCCCCCC(=O)Nc1ncc(SCc2ncc(C(C)(C)C)o2)s1 [Compound 4, N^1-(5-((5-tert-butyloxazol-2-yl)methylthio)thiazol-2-yl)-N^8-hydroxy-N^8-methyloctanediamide] | ≥ 7.00 |
| CC(C)(C)c1cnc(CSc2cnc(NC(=O)CCCCCCC(=O)N(O)Cc3ccccc3)s2)o1 [Compound 6, N^1-benzyl-N^8-(5-((5-tert-butyloxazol-2-yl)methylthio)-thiazol-2-yl)-N^1-hydroxyoctanediamide] | ≥ 7.00 |
| CC(C)(C)c1cnc(CSc2cnc(NC(=O)CCCCCCC(=O)Nc3ccc(CCO)cc3)s2)o1 [Compound 8, N^1-(5-((5-tert-butyloxazol-2-yl)methylthio)thiazol-2-yl)-N^8-(4-(2-hydroxyethyl)phenyl)octanediamide] | ≥ 7.00 |
| CC(C)(C)c1cnc(CSc2cnc(NC(=O)CCCCCCC(=O)Nc3ccccc3)s2)o1 [Compound 9, N^1-(5-((5-tert-butyloxazol-2-yl)methylthio)thiazol-2-yl)-N^8-phenyloctanediamide] | ≥ 7.00 |
| CC(C)(C)c1cnc(CSc2cnc(NC(=O)CCCCCCC(=O)Nc3ccc(O)cc3)s2)o1 [Compound 10, N^1-(5-((5-tert-butyloxazol-2-yl)methylthio)thiazol-2-yl)-N^8-(4-hydroxyphenyl)octanediamide] | ≥ 7.00 |
| CC(C)(C)c1cnc(CSc2cnc(NC(=O)C(=O)Nc3ccccc3)s2)o1 [Compound 11] | 6.00 to 7.00 |
| CC(C)(C)c1cnc(CSc2cnc(NC(=O)CCCC(=O)Nc3ccccc3N)s2)o1 [Compound 15, N1-(2-aminophenyl)-N5-(5-((5-tert-butyloxazol-2-yl)methylthio)thiazol-2-yl)glutaramide] | ≥ 7.00 |
| CC(C)(C)c1cnc(CSc2cnc(NC(=O)CCCCC(=O)Nc3ccccc3N)s2)o1 [Compound 16, N1-(2-aminophenyl)-N6-(5-((5-tert-butyloxazol-2-yl)methylthio)thiazol-2-yl)adipamide] | ≥ 7.00 |
| CC(Sc1cnc(NC(=O)CCCCCCC(=O)Nc2ccccc2N)s1)c1ncc(C(C)(C)C)o1 (stereo not shown) [Compound 20, N^1-(2-aminophenyl)-N^8-(5-(1-(5-tert-butyloxazol-2-yl)ethylthio)thiazol-2-yl)octanediamide] | ≥ 7.00 |
| CC(C)(C)c1cnc(CSc2cnc(NC(=O)CCCCCCC(=O)Nc3ccc(N)cc3)s2)o1 [Compound 21, N^1-(4-aminophenyl)-N^8-(5-((5-tert-butyloxazol-2-yl)methylthio)thiazol-2-yl)octanediamide] | ≥ 7.00 |
| CC(C)(C)c1cnc(CSc2cnc(NC(=O)CCCCCCC(=O)Nc3ccc(F)cc3N)s2)o1 [Compound 23, N^1-(2-amino-4-fluorophenyl)-N^8-(5-((5-tert-butyloxa-zol-2-yl)methylthio)thiazol-2-yl)octanediamide] | ≥ 7.00 |
| CC(C)(C)c1cnc(CSc2cnc(NC(=O)Nc3ccccc3N)s2)o1 [Compound 27, 1-(2-Aminophenyl)-3-(5-((5-tert-butyloxazol-2-yl)methyl-thio)thiazol-2-yl)urea] | ≥ 7.00 |
| CC(C)(C)c1cnc(CSc2cnc(NC(=O)CCCCCCC(=O)Nc3cccnc3)s2)o1 [Compound 29, N^1-(5-((5-tert-butyloxazol-2-yl)methylthio)thiazol-2-yl)-N^8-(pyridin-3-yl)octanediamide] | ≥ 7.00 |
| CONC(=O)CCCOc1ccc(CC(=O)Nc2ncc(SCc3ncc(C(C)(C)C)o3)s2)cc1 [Compound 31, 4-(4-(2-(5-((5-tert-butyloxazol-2-yl)methylthio)thiazol-2-ylamino)-2-oxoethyl)phenoxy)-N-methoxybutanamide] | ≥ 7.00 |
| CN(O)C(=O)CCCOc1ccc(CC(=O)Nc2ncc(SCc3ncc(C(C)(C)C)o3)s2)cc1 [Compound 32, 4-(4-(2-(5-((5-tert-butyloxazol-2-yl)methylthio)thiazol-2-ylamino)-2-oxoethyl)phenoxy)-N-hydroxy-N-methylbutanamide] | ≥ 7.00 |
| CC(C)(C)c1cnc(CSc2cnc(NC(=O)Cc3ccc(OCCCC(=O)Nc4ccccc4N)cc3)s2)o1 [Compound 34, N-(2-aminophenyl)-4-(4-(2-(5-((5-tert-butyloxazol-2-yl)methylthio)thiazol-2-ylamino)-2-oxoethyl)phenoxy)butanamide] | ≥ 7.00 |
| CC(C)(C)c1cnc(CSc2cnc(NC(=O)Cc3ccc(OCCCCC(=O)Nc4ccccc4N)cc3)s2)o1 [Compound 35, N-(2-aminophenyl)-5-(4-(2-(5-((5-tert-butyloxazol-2-yl)methylthio)thiazol-2-ylamino)-2-oxoethyl)phenoxy)pentanamide] | ≥ 7.00 |
| CONC(=O)/C=C/c1ccc(C(=O)Nc2ncc(SCc3ncc(C(C)(C)C)o3)s2)cc1 [Compound 38, (E)-N-(5-((5-tert-butyloxazol-2-yl)methylthio)thiazol-2-yl)-4-(3-(methoxyamino)-3-oxoprop-1-enyl)benzamide] | ≥ 7.00 |

Reference: patent US8691820B2, “CDK inhibitors” (Curis, Inc., priority 2008, dated 2014)
